According to publication PMC12216525, “Characterization of glutamine synthetase involved in the fecundity of Rhopalosiphum padi” (Scientific Reports, 2025):

System: RpGS1
Conditions: read-out: RpGS1; 0.5-15 mM sodium glutamate; ATP, hydroxylamine, Mg2+ in solution B pH 7.4; 37 C; called purified in the discussion, methods describe protein released by ultrasonication

Km: 580 µM
SMILES: N[C@@H](CCC(=O)O)C(=O)O [sodium glutamate]
